# Measurements reported in US10765114B2, “4-amino-6-(pyridyl and 2-substitutedphenyl)-picolinates and 6-amino-2-(pyridyl and 2-substitutedphenyl)-pyrimidine-4-carboxylates and their use as herbicides” (Dow AgroSciences LLC, priority 2013, dated 2020).
# Tested on: Key Grass and Sedge Weeds as well as Grass Crops
# Experiment: Post-Emergent Test II (Table 6)
# Type: in vivo
# Conditions: post-emergence, 336 h, CYPSS, 70 g ai/ha, 14 days after application, read-out: Visual Growth Reduction (%) 14 Days After Application CYPSS
# Method in brief: (§1)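 Plants grown in a greenhouse (~15 h photoperiod, 23-29° C day) to first or second true leaf stage were sprayed post-emergence at 187 L/ha with compound in acetone/DMSO-based aqueous spray containing crop oil concentrate and surfactant, applied at a high rate plus ½× to 1/16× serial rates. Injury was scored visually 14 days later, 0-100% versus untreated plants.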
row,Compound,pest or weed control at 70 g/ha [%]
1,"Nc1c(F)c(-c2ccc(Br)nc2)nc(C(=O)O)c1Cl [Compound 8, 4-amino-6′-bromo-5-chloro-3-fluoro-[2,3′-bipyridine]-6-carboxylic acid]",95 to 100

# Same assay, conditions: post-emergence, 336 h, CYPSS, 140 g ai/ha, 14 days after application, read-out: Visual Growth Reduction (%) 14 Days After Application CYPSS
row,Compound,pest or weed control at 140 g/ha [%]
1,"Nc1c(F)c(-c2ccc(Br)nc2)nc(C(=O)O)c1Cl [Compound 8, 4-amino-6′-bromo-5-chloro-3-fluoro-[2,3′-bipyridine]-6-carboxylic acid]",95 to 100

# Same assay, conditions: post-emergence, 336 h, DIGSA: crabgrass (Digitaria sanguinalis), 70 g ai/ha, 14 days after application, read-out: Visual Growth Reduction (%) 14 Days After Application DIGSA
row,Compound,pest or weed control at 70 g/ha [%]
1,"Nc1c(F)c(-c2ccc(Br)nc2)nc(C(=O)O)c1Cl [Compound 8, 4-amino-6′-bromo-5-chloro-3-fluoro-[2,3′-bipyridine]-6-carboxylic acid]",85 to 94

# Same assay, conditions: post-emergence, 336 h, DIGSA: crabgrass (Digitaria sanguinalis), 140 g ai/ha, 14 days after application, read-out: Visual Growth Reduction (%) 14 Days After Application DIGSA
row,Compound,pest or weed control at 140 g/ha [%]
1,"Nc1c(F)c(-c2ccc(Br)nc2)nc(C(=O)O)c1Cl [Compound 8, 4-amino-6′-bromo-5-chloro-3-fluoro-[2,3′-bipyridine]-6-carboxylic acid]",95 to 100

# Same assay, conditions: post-emergence, 336 h, ECHSS, 70 g ai/ha, 14 days after application, read-out: Visual Growth Reduction (%) 14 Days After Application ECHSS
row,Compound,pest or weed control at 70 g/ha [%]
1,"Nc1c(F)c(-c2ccc(Br)nc2)nc(C(=O)O)c1Cl [Compound 8, 4-amino-6′-bromo-5-chloro-3-fluoro-[2,3′-bipyridine]-6-carboxylic acid]",85 to 94

# Same assay, conditions: post-emergence, 336 h, ECHSS, 140 g ai/ha, 14 days after application, read-out: Visual Growth Reduction (%) 14 Days After Application ECHSS
row,Compound,pest or weed control at 140 g/ha [%]
1,"Nc1c(F)c(-c2ccc(Br)nc2)nc(C(=O)O)c1Cl [Compound 8, 4-amino-6′-bromo-5-chloro-3-fluoro-[2,3′-bipyridine]-6-carboxylic acid]",95 to 100

# Same assay, conditions: post-emergence, 336 h, ORYSS (crop), 70 g ai/ha, 14 days after application, read-out: Visual Growth Reduction (%) 14 Days After Application ORYSS
row,Compound,pest or weed control at 70 g/ha [%]
1,"Nc1c(F)c(-c2ccc(Br)nc2)nc(C(=O)O)c1Cl [Compound 8, 4-amino-6′-bromo-5-chloro-3-fluoro-[2,3′-bipyridine]-6-carboxylic acid]",60 to 74

# Same assay, conditions: post-emergence, 336 h, ORYSS (crop), 140 g ai/ha, 14 days after application, read-out: Visual Growth Reduction (%) 14 Days After Application ORYSS
row,Compound,pest or weed control at 140 g/ha [%]
1,"Nc1c(F)c(-c2ccc(Br)nc2)nc(C(=O)O)c1Cl [Compound 8, 4-amino-6′-bromo-5-chloro-3-fluoro-[2,3′-bipyridine]-6-carboxylic acid]",75 to 84

# Same assay, conditions: post-emergence, 336 h, SETFA: giant foxtail (Setaria faberi), 70 g ai/ha, 14 days after application, read-out: Visual Growth Reduction (%) 14 Days After Application SETFA
row,Compound,pest or weed control at 70 g/ha [%]
1,"Nc1c(F)c(-c2ccc(Br)nc2)nc(C(=O)O)c1Cl [Compound 8, 4-amino-6′-bromo-5-chloro-3-fluoro-[2,3′-bipyridine]-6-carboxylic acid]",85 to 94

# Same assay, conditions: post-emergence, 336 h, SETFA: giant foxtail (Setaria faberi), 140 g ai/ha, 14 days after application, read-out: Visual Growth Reduction (%) 14 Days After Application SETFA
row,Compound,pest or weed control at 140 g/ha [%]
1,"Nc1c(F)c(-c2ccc(Br)nc2)nc(C(=O)O)c1Cl [Compound 8, 4-amino-6′-bromo-5-chloro-3-fluoro-[2,3′-bipyridine]-6-carboxylic acid]",85 to 94

# Same assay, conditions: post-emergence, 336 h, SORVU: grain sorghum (Sorghum vulgare), 70 g ai/ha, 14 days after application, read-out: Visual Growth Reduction (%) 14 Days After Application SORVU
row,Compound,pest or weed control at 70 g/ha [%]
1,"Nc1c(F)c(-c2ccc(Br)nc2)nc(C(=O)O)c1Cl [Compound 8, 4-amino-6′-bromo-5-chloro-3-fluoro-[2,3′-bipyridine]-6-carboxylic acid]",85 to 94

# Same assay, conditions: post-emergence, 336 h, SORVU: grain sorghum (Sorghum vulgare), 140 g ai/ha, 14 days after application, read-out: Visual Growth Reduction (%) 14 Days After Application SORVU
row,Compound,pest or weed control at 140 g/ha [%]
1,"Nc1c(F)c(-c2ccc(Br)nc2)nc(C(=O)O)c1Cl [Compound 8, 4-amino-6′-bromo-5-chloro-3-fluoro-[2,3′-bipyridine]-6-carboxylic acid]",95 to 100

# Same assay, conditions: post-emergence, 336 h, TRZSS (crop), 70 g ai/ha, 14 days after application, read-out: Visual Growth Reduction (%) 14 Days After Application TRZSS
row,Compound,pest or weed control at 70 g/ha [%]
1,"Nc1c(F)c(-c2ccc(Br)nc2)nc(C(=O)O)c1Cl [Compound 8, 4-amino-6′-bromo-5-chloro-3-fluoro-[2,3′-bipyridine]-6-carboxylic acid]",85 to 94

# Same assay, conditions: post-emergence, 336 h, TRZSS (crop), 140 g ai/ha, 14 days after application, read-out: Visual Growth Reduction (%) 14 Days After Application TRZSS
row,Compound,pest or weed control at 140 g/ha [%]
1,"Nc1c(F)c(-c2ccc(Br)nc2)nc(C(=O)O)c1Cl [Compound 8, 4-amino-6′-bromo-5-chloro-3-fluoro-[2,3′-bipyridine]-6-carboxylic acid]",95 to 100

# Same assay, conditions: post-emergence, 336 h, ZEAMX: maize, corn (Zea mays), 70 g ai/ha, 14 days after application, read-out: Visual Growth Reduction (%) 14 Days After Application ZEAMX
row,Compound,pest or weed control at 70 g/ha [%]
1,"Nc1c(F)c(-c2ccc(Br)nc2)nc(C(=O)O)c1Cl [Compound 8, 4-amino-6′-bromo-5-chloro-3-fluoro-[2,3′-bipyridine]-6-carboxylic acid]",85 to 94

# Same assay, conditions: post-emergence, 336 h, ZEAMX: maize, corn (Zea mays), 140 g ai/ha, 14 days after application, read-out: Visual Growth Reduction (%) 14 Days After Application ZEAMX
row,Compound,pest or weed control at 140 g/ha [%]
1,"Nc1c(F)c(-c2ccc(Br)nc2)nc(C(=O)O)c1Cl [Compound 8, 4-amino-6′-bromo-5-chloro-3-fluoro-[2,3′-bipyridine]-6-carboxylic acid]",95 to 100

# Tested on: Key Broadleaf Weed and Crop Species
# Experiment: Post-Emergent Test II (Table 5)
# Type: in vivo
# Conditions: Abutilon theophrasti, post-emergence, 336 h, ABUTH: velvetleaf (Abutilon theophrasti), application rate 70 (kg ai/ha; footnote: g ai/ha), read-out: Visual Growth Reduction (%) 14 Days After Application ABUTH
# Method in brief: as §1
row,Compound,pest or weed control at 70 g/ha [%]
1,"Nc1c(F)c(-c2ccc(Br)nc2)nc(C(=O)O)c1Cl [Compound 8, 4-amino-6′-bromo-5-chloro-3-fluoro-[2,3′-bipyridine]-6-carboxylic acid]",85 to 94

# Same assay, conditions: Abutilon theophrasti, post-emergence, 336 h, ABUTH: velvetleaf (Abutilon theophrasti), application rate 140 (kg ai/ha; footnote: g ai/ha), read-out: Visual Growth Reduction (%) 14 Days After Application ABUTH
row,Compound,pest or weed control at 140 g/ha [%]
1,"Nc1c(F)c(-c2ccc(Br)nc2)nc(C(=O)O)c1Cl [Compound 8, 4-amino-6′-bromo-5-chloro-3-fluoro-[2,3′-bipyridine]-6-carboxylic acid]",95 to 100

# Same assay, conditions: Amaranthus retroflexus, post-emergence, 336 h, AMARE: redroot pigweed (Amaranthus retroflexus), application rate 70 (kg ai/ha; footnote: g ai/ha), read-out: Visual Growth Reduction (%) 14 Days After Application AMARE
row,Compound,pest or weed control at 70 g/ha [%]
1,"Nc1c(F)c(-c2ccc(Br)nc2)nc(C(=O)O)c1Cl [Compound 8, 4-amino-6′-bromo-5-chloro-3-fluoro-[2,3′-bipyridine]-6-carboxylic acid]",95 to 100

# Same assay, conditions: Amaranthus retroflexus, post-emergence, 336 h, AMARE: redroot pigweed (Amaranthus retroflexus), application rate 140 (kg ai/ha; footnote: g ai/ha), read-out: Visual Growth Reduction (%) 14 Days After Application AMARE
row,Compound,pest or weed control at 140 g/ha [%]
1,"Nc1c(F)c(-c2ccc(Br)nc2)nc(C(=O)O)c1Cl [Compound 8, 4-amino-6′-bromo-5-chloro-3-fluoro-[2,3′-bipyridine]-6-carboxylic acid]",95 to 100

# Same assay, conditions: Brassica napus, post-emergence, 336 h, BRSSS: oilseed rape, canola (Brassica napus), application rate 70 (kg ai/ha; footnote: g ai/ha), read-out: Visual Growth Reduction (%) 14 Days After Application BRSSS
row,Compound,pest or weed control at 70 g/ha [%]
1,"Nc1c(F)c(-c2ccc(Br)nc2)nc(C(=O)O)c1Cl [Compound 8, 4-amino-6′-bromo-5-chloro-3-fluoro-[2,3′-bipyridine]-6-carboxylic acid]",95 to 100

# Same assay, conditions: Brassica napus, post-emergence, 336 h, BRSSS: oilseed rape, canola (Brassica napus), application rate 140 (kg ai/ha; footnote: g ai/ha), read-out: Visual Growth Reduction (%) 14 Days After Application BRSSS
row,Compound,pest or weed control at 140 g/ha [%]
1,"Nc1c(F)c(-c2ccc(Br)nc2)nc(C(=O)O)c1Cl [Compound 8, 4-amino-6′-bromo-5-chloro-3-fluoro-[2,3′-bipyridine]-6-carboxylic acid]",95 to 100

# Same assay, conditions: Chenopodium album, post-emergence, 336 h, CHEAL: lambsquarters (Chenopodium album), application rate 70 (kg ai/ha; footnote: g ai/ha), read-out: Visual Growth Reduction (%) 14 Days After Application CHEAL
row,Compound,pest or weed control at 70 g/ha [%]
1,"Nc1c(F)c(-c2ccc(Br)nc2)nc(C(=O)O)c1Cl [Compound 8, 4-amino-6′-bromo-5-chloro-3-fluoro-[2,3′-bipyridine]-6-carboxylic acid]",95 to 100

# Same assay, conditions: Chenopodium album, post-emergence, 336 h, CHEAL: lambsquarters (Chenopodium album), application rate 140 (kg ai/ha; footnote: g ai/ha), read-out: Visual Growth Reduction (%) 14 Days After Application CHEAL
row,Compound,pest or weed control at 140 g/ha [%]
1,"Nc1c(F)c(-c2ccc(Br)nc2)nc(C(=O)O)c1Cl [Compound 8, 4-amino-6′-bromo-5-chloro-3-fluoro-[2,3′-bipyridine]-6-carboxylic acid]",95 to 100

# Same assay, conditions: Euphorbia heterophylla, post-emergence, 336 h, EPHHL: wild poinsettia (Euphorbia heterophylla), application rate 70 (kg ai/ha; footnote: g ai/ha), read-out: Visual Growth Reduction (%) 14 Days After Application EPHHL
row,Compound,pest or weed control at 70 g/ha [%]
1,"Nc1c(F)c(-c2ccc(Br)nc2)nc(C(=O)O)c1Cl [Compound 8, 4-amino-6′-bromo-5-chloro-3-fluoro-[2,3′-bipyridine]-6-carboxylic acid]",75 to 84

# Same assay, conditions: Euphorbia heterophylla, post-emergence, 336 h, EPHHL: wild poinsettia (Euphorbia heterophylla), application rate 140 (kg ai/ha; footnote: g ai/ha), read-out: Visual Growth Reduction (%) 14 Days After Application EPHHL
row,Compound,pest or weed control at 140 g/ha [%]
1,"Nc1c(F)c(-c2ccc(Br)nc2)nc(C(=O)O)c1Cl [Compound 8, 4-amino-6′-bromo-5-chloro-3-fluoro-[2,3′-bipyridine]-6-carboxylic acid]",95 to 100

# Same assay, conditions: Helianthus annuus, post-emergence, 336 h, HELAN: sunflower (Helianthus annuus), application rate 70 (kg ai/ha; footnote: g ai/ha), read-out: Visual Growth Reduction (%) 14 Days After Application HELAN
row,Compound,pest or weed control at 70 g/ha [%]
1,"Nc1c(F)c(-c2ccc(Br)nc2)nc(C(=O)O)c1Cl [Compound 8, 4-amino-6′-bromo-5-chloro-3-fluoro-[2,3′-bipyridine]-6-carboxylic acid]",95 to 100

# Same assay, conditions: Helianthus annuus, post-emergence, 336 h, HELAN: sunflower (Helianthus annuus), application rate 140 (kg ai/ha; footnote: g ai/ha), read-out: Visual Growth Reduction (%) 14 Days After Application HELAN
row,Compound,pest or weed control at 140 g/ha [%]
1,"Nc1c(F)c(-c2ccc(Br)nc2)nc(C(=O)O)c1Cl [Compound 8, 4-amino-6′-bromo-5-chloro-3-fluoro-[2,3′-bipyridine]-6-carboxylic acid]",95 to 100

# Same assay, conditions: Viola tricolor, post-emergence, 336 h, VIOTR: wild pansy (Viola tricolor), application rate 70 (kg ai/ha; footnote: g ai/ha), read-out: Visual Growth Reduction (%) 14 Days After Application VIOTR
row,Compound,pest or weed control at 70 g/ha [%]
1,"Nc1c(F)c(-c2ccc(Br)nc2)nc(C(=O)O)c1Cl [Compound 8, 4-amino-6′-bromo-5-chloro-3-fluoro-[2,3′-bipyridine]-6-carboxylic acid]",95 to 100

# Same assay, conditions: Viola tricolor, post-emergence, 336 h, VIOTR: wild pansy (Viola tricolor), application rate 140 (kg ai/ha; footnote: g ai/ha), read-out: Visual Growth Reduction (%) 14 Days After Application VIOTR
row,Compound,pest or weed control at 140 g/ha [%]
1,"Nc1c(F)c(-c2ccc(Br)nc2)nc(C(=O)O)c1Cl [Compound 8, 4-amino-6′-bromo-5-chloro-3-fluoro-[2,3′-bipyridine]-6-carboxylic acid]",95 to 100
